Experimental data: ChEMBL document CHEMBL1201862, “PubChem BioAssay data set” (2004)
Calls of active or inactive are those of the source.

Columns and labels:
[1] = molecular target: Eukaryotic translation initiation factor 4H (Homo sapiens, UniProt Q15056); experiment: human eIF4H binding inhibitors, primary screen, translation initiation inhibitor project, biochemical, uHTS, fluorescence polarization (AID 2012)
[2] = molecular target: Polyadenylate-binding protein 1 (Homo sapiens, UniProt P11940); experiment: PABP poly(A) RNA binding inhibitors, primary screen, biochemical, fluorescence polarization, uHTS (AID 2014)
[3] = molecular target: DNA dC->dU-editing enzyme APOBEC-3A (Homo sapiens, UniProt P31941); experiment: Dose Response confirmation of small molecule APOBEC3A DNA Deaminase Inhibitors via a fluorescence-based single-stranded DNA deaminase assay. [Related pubchem assays (depositor defined):AID493011, AID493024]; assay type: functional
[4] = molecular target: DNA dC->dU-editing enzyme APOBEC-3G (Homo sapiens, UniProt Q9HC16); assay type: functional;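 also: Dose-response counterscreen measuring inhibition of APOBEC3G DNA deaminase activity, run while confirming APOBEC3A inhibitors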
[5] = inhibitors of intracellular T. cruzi replication, confirmation, NIH3T3 host cells, beta-gal luminescence (AID 2044); assay type: functional, cell-based;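 also: intracellular parasites grown in NIH/3T3 mouse fibroblasts as host cells; luminescent beta-galactosidase reporter signal from transgenic T. cruzi replicating inside host cells; inhibitors lower the luminescence signal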
[6] = growth suppression of PTEN-null colon cells, dose response, cell-based, HCT116 PTEN knockout (AID 1047); assay type: functional;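 also: HCT116 colon tumor cells with PTEN knocked out; cells exposed to compound for 60 hours before readout; potency for loss of cell viability measured by luminescence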
[7] = cytotoxicity toward NIH3T3 fibroblasts, dose response, counter-screen, cell-based, ATP luminescence, mouse fibroblasts (AID 2010); assay type: functional;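 also: cells exposed to compound for about 90 hours before reading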
[8] = growth suppression of beta-catenin-knockout colon cells, dose response, cell-based, HCT116, human colon tumor (AID 1045); assay type: functional;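 also: HCT116 colon tumor cells with beta catenin knocked out; cells exposed to compound for 60 hours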
[9] = cytotoxicity in NIH/3T3 mouse fibroblasts, dose response, cytotoxicity control, cell-based, mouse embryonic fibroblasts, dry powder, set 2 (AID 493247); assay type: functional; settings: Fibroblast
Trypanosoma cruzi = experiment: growth inhibition of intracellular Trypanosoma cruzi, dose response, cell-based, plate reader, dry powder, set 3 (AID 493197); assay type: functional
[10] = molecular target: T1, Microphthalmia-associated transcription factor (Homo sapiens, UniProt O75030); experiment: TRPM1 promoter luciferase signal decrease, dose response, MITF inhibitor project, cell-based, SK-MEL-5, cherry-picked, set 3 (AID 493073); assay type: functional
T1 sequence (O75030 whole entry): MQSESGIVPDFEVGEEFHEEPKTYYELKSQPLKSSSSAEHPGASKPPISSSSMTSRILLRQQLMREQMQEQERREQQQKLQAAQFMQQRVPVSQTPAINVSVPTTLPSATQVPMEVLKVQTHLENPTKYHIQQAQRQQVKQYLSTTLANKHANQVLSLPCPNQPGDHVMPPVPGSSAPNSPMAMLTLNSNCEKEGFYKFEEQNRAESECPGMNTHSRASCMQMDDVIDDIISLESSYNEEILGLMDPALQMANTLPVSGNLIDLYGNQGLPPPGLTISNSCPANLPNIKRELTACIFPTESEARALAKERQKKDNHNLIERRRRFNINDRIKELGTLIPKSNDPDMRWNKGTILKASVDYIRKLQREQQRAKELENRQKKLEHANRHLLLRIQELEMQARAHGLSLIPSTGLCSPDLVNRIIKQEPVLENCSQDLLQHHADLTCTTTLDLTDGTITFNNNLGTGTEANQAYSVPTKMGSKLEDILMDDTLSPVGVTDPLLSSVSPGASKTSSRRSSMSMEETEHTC

[11] = molecular target: G-protein coupled receptor 55 (Homo sapiens, UniProt Q9Y2T6); experiment: GPR55 antagonists blocking LPI-driven arrestin recruitment, primary screen, imaging, U2OS, beta-arrestin-GFP, LPI agonist (AID 2013); assay type: functional;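 also: antagonist potency measured as reduced agonist-driven arrestin aggregation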
[12] = microbe, parasite or virus in culture; assay type: functional; settings: Mycobacterium tuberculosis
[13] = Late stage results from the probe development effort to identify inhibitors of the protein methylesterase PME-1: Luminescence-based counterscreen assay to identify cytotoxic compounds.; assay type: functional
[14] = molecular target: Acylamino-acid-releasing enzyme (Homo sapiens, UniProt P13798); experiment: PME-1 inhibitor potency by in-gel ABPP, dose response, selectivity assay for PME-1 inhibitor project, cell lysate, mouse brain cytosol, FP-rhodamine, panel member APEH Assay Panel member description: Inhibition of N-acylaminoacyl-peptide hydrolase (APEH) (anti-target) (AID 2366)
Estrogen receptor = molecular target: T2, Estrogen receptor (Homo sapiens, UniProt P03372);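 also: potency for inhibiting coactivator peptide recruitment to the receptor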
T2 sequence (P03372 whole entry): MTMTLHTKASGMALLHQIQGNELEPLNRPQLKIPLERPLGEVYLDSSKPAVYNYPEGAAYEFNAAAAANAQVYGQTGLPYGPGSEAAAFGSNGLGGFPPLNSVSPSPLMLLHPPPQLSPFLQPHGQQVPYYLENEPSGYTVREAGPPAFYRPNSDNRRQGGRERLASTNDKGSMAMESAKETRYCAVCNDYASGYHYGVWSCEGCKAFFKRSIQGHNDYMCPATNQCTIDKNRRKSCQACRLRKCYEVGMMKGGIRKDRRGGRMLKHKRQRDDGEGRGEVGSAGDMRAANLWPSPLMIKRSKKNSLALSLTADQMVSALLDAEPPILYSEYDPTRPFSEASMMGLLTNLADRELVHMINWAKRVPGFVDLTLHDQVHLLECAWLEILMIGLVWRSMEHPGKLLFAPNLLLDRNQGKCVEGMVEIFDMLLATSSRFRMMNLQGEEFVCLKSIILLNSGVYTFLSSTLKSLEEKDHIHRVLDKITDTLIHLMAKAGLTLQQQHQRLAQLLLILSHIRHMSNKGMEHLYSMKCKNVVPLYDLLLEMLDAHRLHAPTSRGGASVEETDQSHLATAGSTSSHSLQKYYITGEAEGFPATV

[15] = molecular target: Alkaline phosphatase, placental type (Homo sapiens, UniProt P05187); experiment: PLAP enzyme inhibitors, confirmation, biochemical, luminescence (AID 1512); assay type: functional
[16] = molecular target: T3, Alkaline phosphatase, tissue-nonspecific isozyme (Homo sapiens, UniProt P05186); experiment: human TNAP enzyme inhibitors, SAR follow-up, biochemical, luminescent, dose response (AID 1056)
T3 sequence (P05186 whole entry): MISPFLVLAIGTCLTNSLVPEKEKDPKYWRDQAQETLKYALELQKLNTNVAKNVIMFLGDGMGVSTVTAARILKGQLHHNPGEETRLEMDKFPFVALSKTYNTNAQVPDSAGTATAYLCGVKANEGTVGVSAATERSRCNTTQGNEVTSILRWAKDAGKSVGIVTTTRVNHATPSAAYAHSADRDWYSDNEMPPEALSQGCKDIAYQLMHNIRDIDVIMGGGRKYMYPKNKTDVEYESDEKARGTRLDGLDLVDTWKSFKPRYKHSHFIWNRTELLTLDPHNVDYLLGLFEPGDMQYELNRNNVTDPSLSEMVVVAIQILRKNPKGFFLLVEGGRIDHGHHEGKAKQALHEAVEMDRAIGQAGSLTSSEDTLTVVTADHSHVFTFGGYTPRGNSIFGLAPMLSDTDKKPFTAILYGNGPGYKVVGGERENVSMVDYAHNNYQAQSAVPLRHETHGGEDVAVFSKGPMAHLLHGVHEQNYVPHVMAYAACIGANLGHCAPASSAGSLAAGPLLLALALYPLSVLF

Chain of Alkaline phosphatase, placental type (P05187 whole entry): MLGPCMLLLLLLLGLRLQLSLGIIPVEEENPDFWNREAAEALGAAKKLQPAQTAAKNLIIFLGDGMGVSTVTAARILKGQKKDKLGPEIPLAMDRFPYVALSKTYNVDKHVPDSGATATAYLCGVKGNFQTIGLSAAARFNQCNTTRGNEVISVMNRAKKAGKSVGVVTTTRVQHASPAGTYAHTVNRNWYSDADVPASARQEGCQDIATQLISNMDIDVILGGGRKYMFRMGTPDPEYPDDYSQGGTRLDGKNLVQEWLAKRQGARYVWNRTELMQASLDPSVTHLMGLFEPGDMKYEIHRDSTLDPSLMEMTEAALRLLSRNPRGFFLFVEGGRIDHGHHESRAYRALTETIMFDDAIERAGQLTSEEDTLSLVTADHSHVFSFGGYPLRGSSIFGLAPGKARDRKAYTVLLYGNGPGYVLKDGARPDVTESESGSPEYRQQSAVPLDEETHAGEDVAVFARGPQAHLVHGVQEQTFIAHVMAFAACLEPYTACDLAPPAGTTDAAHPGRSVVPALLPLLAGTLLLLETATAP
Chain of Acylamino-acid-releasing enzyme (P13798 whole entry): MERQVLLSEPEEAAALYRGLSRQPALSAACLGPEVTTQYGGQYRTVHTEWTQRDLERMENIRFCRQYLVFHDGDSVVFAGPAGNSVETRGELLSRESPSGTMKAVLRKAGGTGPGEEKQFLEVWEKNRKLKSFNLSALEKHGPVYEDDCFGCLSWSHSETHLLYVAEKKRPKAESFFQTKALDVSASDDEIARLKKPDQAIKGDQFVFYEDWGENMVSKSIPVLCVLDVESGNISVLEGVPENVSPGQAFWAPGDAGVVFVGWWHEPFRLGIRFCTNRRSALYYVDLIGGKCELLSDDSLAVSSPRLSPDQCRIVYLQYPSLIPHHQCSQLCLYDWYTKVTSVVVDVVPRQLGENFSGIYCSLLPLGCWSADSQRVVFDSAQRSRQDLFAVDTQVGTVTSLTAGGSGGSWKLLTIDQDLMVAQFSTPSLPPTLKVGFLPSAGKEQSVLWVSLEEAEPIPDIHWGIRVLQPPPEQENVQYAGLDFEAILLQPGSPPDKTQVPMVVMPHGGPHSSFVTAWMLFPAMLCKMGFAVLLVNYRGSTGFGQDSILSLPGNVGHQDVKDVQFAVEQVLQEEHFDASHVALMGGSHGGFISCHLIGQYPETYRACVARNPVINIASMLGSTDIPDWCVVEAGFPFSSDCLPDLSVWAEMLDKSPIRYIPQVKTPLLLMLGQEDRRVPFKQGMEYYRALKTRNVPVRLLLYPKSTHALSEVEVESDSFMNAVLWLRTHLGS
Chain of G-protein coupled receptor 55 (Q9Y2T6 whole entry): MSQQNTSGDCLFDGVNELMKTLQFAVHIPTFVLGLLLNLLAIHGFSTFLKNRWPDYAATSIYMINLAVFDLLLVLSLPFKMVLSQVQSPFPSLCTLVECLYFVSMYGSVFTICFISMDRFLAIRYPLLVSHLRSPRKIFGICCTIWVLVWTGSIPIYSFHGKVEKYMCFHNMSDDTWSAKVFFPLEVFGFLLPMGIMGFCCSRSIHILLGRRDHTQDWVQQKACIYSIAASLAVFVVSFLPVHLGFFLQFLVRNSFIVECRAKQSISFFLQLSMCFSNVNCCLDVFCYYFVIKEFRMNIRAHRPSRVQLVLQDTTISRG
Chain of Polyadenylate-binding protein 1 (P11940 whole entry): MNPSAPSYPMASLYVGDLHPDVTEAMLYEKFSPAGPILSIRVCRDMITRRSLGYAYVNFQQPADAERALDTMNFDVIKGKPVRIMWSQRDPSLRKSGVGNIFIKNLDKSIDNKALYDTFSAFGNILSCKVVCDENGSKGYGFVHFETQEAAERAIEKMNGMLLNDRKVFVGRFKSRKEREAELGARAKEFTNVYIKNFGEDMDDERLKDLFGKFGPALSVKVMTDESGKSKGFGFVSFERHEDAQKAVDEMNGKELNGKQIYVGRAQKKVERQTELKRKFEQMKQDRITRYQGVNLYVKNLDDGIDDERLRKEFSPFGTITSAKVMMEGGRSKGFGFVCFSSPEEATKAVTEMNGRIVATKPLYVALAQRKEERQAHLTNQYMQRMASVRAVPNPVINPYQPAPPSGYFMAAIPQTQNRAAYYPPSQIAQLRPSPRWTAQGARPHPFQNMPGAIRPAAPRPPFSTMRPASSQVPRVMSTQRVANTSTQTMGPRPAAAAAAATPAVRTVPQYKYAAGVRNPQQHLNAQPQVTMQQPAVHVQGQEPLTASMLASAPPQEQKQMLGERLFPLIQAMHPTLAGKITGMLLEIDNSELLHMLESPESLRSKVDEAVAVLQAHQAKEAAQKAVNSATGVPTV
Chain of DNA dC->dU-editing enzyme APOBEC-3A (P31941 whole entry): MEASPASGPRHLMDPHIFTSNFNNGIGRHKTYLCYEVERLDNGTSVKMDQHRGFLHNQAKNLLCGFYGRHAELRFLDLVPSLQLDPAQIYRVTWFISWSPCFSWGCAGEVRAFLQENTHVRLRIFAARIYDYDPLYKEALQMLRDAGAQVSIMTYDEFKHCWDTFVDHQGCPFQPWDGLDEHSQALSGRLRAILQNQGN
Chain of DNA dC->dU-editing enzyme APOBEC-3G (Q9HC16 whole entry): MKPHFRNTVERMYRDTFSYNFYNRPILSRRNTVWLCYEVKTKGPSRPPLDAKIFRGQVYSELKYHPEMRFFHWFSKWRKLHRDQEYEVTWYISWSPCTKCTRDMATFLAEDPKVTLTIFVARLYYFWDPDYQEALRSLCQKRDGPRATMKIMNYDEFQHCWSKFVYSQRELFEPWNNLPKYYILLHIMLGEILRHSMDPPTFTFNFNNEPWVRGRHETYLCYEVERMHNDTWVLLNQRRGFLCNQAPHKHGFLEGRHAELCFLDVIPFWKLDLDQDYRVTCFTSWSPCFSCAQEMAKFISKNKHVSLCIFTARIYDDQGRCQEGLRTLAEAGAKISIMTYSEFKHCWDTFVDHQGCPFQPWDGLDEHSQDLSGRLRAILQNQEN

Oc1ccccc1C=N[n+]1ccccc1
IC50 [1]: > 100 µM (inactive)
IC50 [2]: 5.32 µM (active)
IC50 [3]: 2.88 µM (active)
IC50 [4]: 5.33 µM (active)

O=C(COc1ccccc1)N/N=C/c1ccc([N+](=O)[O-])o1
EC50 [5]: 122 nM (active)
EC50 [6]: 7.39 µM (active)
EC50 [7]: > 60 µM (not active)
EC50 [8]: 6.95 µM (active)
AC50 [9]: 21.2 µM (active)
AC50 (Trypanosoma cruzi): 317 nM (active)
AC50 [10]: 21.5 µM (active)

CC(C)(C)c1nn(-c2ccccc2)c2[nH]c(=O)c(CNCc3ccc4c(c3)OCO4)cc12
IC50 [11]: 2.67 µM (active)
CC50 [12]: 27.2 µM (active)

N#C/C(=C\c1cccn1S(=O)(=O)c1cccc(C#N)c1)S(=O)(=O)c1ccc(F)cc1
CC50 [13]: 100 µM (active)
IC50 [14]: > 50 µM (inactive)

CNc1nnc(-c2cc3cc(Cl)ccc3oc2=O)s1
IC50 (Estrogen receptor): 11.1 µM (active)
IC50 [15]: > 100 µM (inactive)
IC50 [16]: > 100 µM (inactive)
